Data from patent US20250304587A1, “WEE1 INHIBITOR, PREPARATION THEREFOR AND USE THEREOF” (JIANGSU TASLY DIYI PHARMACEUTICAL CO., LTD., priority 2022, published 2025).

How the values were obtained:
[1] = system: OVCAR-3 cells; assay: Cell Titer-Glo anti-proliferation, OVCAR-3 cells; format: cell-based; conditions: 3 days, read-out: Anti-proliferative activity OVCAR-3 (IC50 class)
Protocol: (§1) A. Evaluation of the Anti-Proliferative Effect of Compounds on BxPC3, HT-29 and OVCAR-3 Cells by the Cell Titer-Glo Method
(§2) Compound solutions of different concentration gradients were prepared. […] The cell growth group without compound was used as a positive control (maximum signal control) and the medium was used as a negative control (minimum signal control), while ensuring that the final level of DMSO in each reaction well was 0.2%. After removing the medium from the 384-well plate, 25 μl of the configured compound at different concentrations was transferred into the well plate and the compound and cells were incubated in the cell incubator at 37° C. with 5% CO2 for 3 days.
(§3) The 384-well plates were removed from the cell incubator and allowed to equilibrate for 1 h to room temperature. 25 μl of Cell Titer-Glo assay was added to each well, lysed on a shaker for 2 min and then read out (Luminescence) using a BMG PHERAStar after 10 min incubation. Calculate the inhibition rate from the luminescence signal.
(§4) to calculate the rate of inhibition of the cells by different concentrations of the compounds. The IC50 of the compound on cell activity inhibition was calculated by fitting a log(inhibitor) vs. response-Variable slope model to GraphPad Prism 6. The fitted equation was: Y=Bottom+(Top-Bottom)/(1+10^((Log IC50−X)*HillSlope)), where Y represents the rate of inhibition and X represents the concentration of the known compound after Log.

[2] = system: BxPC3 cells; assay: Cell Titer-Glo anti-proliferation, BxPC3 cells; format: cell-based, human; conditions: 3 days, read-out: Anti-proliferative activity BxPC3 (IC50 class)
Protocol: as §1, §2, §3, §4

[3] = system: HT-29 cells; assay: Cell Titer-Glo anti-proliferation, HT-29 cells; format: cell-based, human; conditions: 3 days, read-out: Anti-proliferative activity HT-29 (IC50 class)
Protocol: as §1, §2, §3, §4

| IC50 [1] | IC50 [2] | IC50 [3] | SMILES |
| --- | --- | --- | --- |
| 0.1 to 1 µM | 1 to 2 µM | 0.1 to 1 µM | C=CCn1c(=O)c2cnc(Nc3ccc(N4CCC(N5CCN(C)CC5)C(F)C4)cc3)nc2n1-c1ccc2c(n1)C(C)(O)C1(CC1)C2 (mixture of isomers) [Compound 14] |
| 1 to 2 µM | 1 to 2 µM | 0.1 to 1 µM | C=CCn1c(=O)c2cnc(Nc3ccc(N4CCN(C)CC4)c(C)c3)nc2n1-c1ccc2c(n1)C(C)(O)C1(CC2)CC1 (racemic) [Compound 8] |
| 0.1 to 1 µM | > 10 µM | 1 to 2 µM | C=CCn1c(=O)c2cnc(Nc3ccc4c(c3)CN(C)CC4(C)C)nc2n1-c1ccc2c(n1)C(C)(O)C1(CC1)C2 (racemic) [Compound 9] |
| 0.1 to 1 µM | 2 to 5 µM | 1 to 2 µM | C=CCn1c(=O)c2cnc(Nc3ccc(N4CCN(C)CC4)c(C)c3)nc2n1-c1ccc2c(n1)C(C)(O)C1(CC1)C2 (racemic) [Compound 10] |
| 0.1 to 1 µM | 2 to 5 µM | 0.1 to 1 µM | C=CCn1c(=O)c2cnc(Nc3ccc(N4CCC(N(C)C)CC4)cc3)nc2n1-c1ccc2c(n1)C(C)(O)C1(CC1)C2 (racemic) [Compound 12] |
| 2 to 5 µM | 2 to 5 µM | 2 to 5 µM | C=CCn1c(=O)c2cnc(Nc3ccc(N4CCN(C)CC4)c(CO)c3)nc2n1-c1ccc2c(n1)C(C)(O)C1(CC1)C2 (racemic) [Compound 19] |
| 0.1 to 1 µM | 0.1 to 1 µM | 0.1 to 1 µM | C=CCn1c(=O)c2cnc(Nc3ccc(N4CCC5(CCN(C)CC5)CC4)cc3)nc2n1-c1ccc2c(n1)C(O)(CC)C1(CC1)C2 (racemic) [Compound 27] |
| 1 to 2 µM | 1 to 2 µM | 0.1 to 1 µM | C=CCn1c(=O)c2cnc(Nc3ccc(N4CC5CC(C4)N5C)cc3)nc2n1-c1ccc2c(n1)C(O)C1(CC2)CC1 (racemic) [Compound 34] |
| 0.1 to 1 µM | 0.1 to 1 µM | 0.1 to 1 µM | C=CCn1c(=O)c2cnc(Nc3ccc(N4C[C@H]5CN(C)C[C@H]5C4)cc3)nc2n1-c1ccc2c(n1)C(C)(O)C1(CC2)CC1 (mixture of isomers) [Compound 43] |
| > 10 µM | > 10 µM | > 10 µM | C=CCn1c(=O)c2cnc(Nc3ccc(N4CCC5(CC4)CN(C)C5)cc3)nc2n1-c1ccc2c(n1)C(C)(O)C1(CC2)CC1 (racemic) [Compound 47] |
| 2 to 5 µM | 2 to 5 µM | 2 to 5 µM | C=CCn1c(=O)c2cnc(Nc3ccc(N4CC5CC(C4)N5C)c(OC)c3)nc2n1-c1ccc2c(n1)C(O)C1(CC2)CC1 (racemic) [Compound 49] |
| – | 1 to 2 µM | 0.1 to 1 µM | C=CCn1c(=O)c2cnc(Nc3ccc(N4CCN(C)CC4)cc3)nc2n1-c1ccc2c(n1)C(C)(O)C1(CC2)CC1 (single isomer, unassigned) [Compound 6b] |
| 1 to 2 µM | 1 to 2 µM | 1 to 2 µM | C=CCn1c(=O)c2cnc(Nc3ccc(N4CCC(N(C)C)C(F)C4)cc3)nc2n1-c1ccc2c(n1)C(C)(O)C1(CC1)C2 (single isomer, unassigned) [Compound 20a] |
| 1 to 2 µM | 1 to 2 µM | 1 to 2 µM | C=CCn1c(=O)c2cnc(Nc3ccc(N4CCC(N(C)C)[C@@H](F)C4)cc3)nc2n1-c1ccc2c(n1)[C@@](C)(O)C1(CC1)C2 (single isomer, unassigned) [Compound 20b] |
| 0.1 to 1 µM | 1 to 2 µM | 0.1 to 1 µM | C=CCn1c(=O)c2cnc(Nc3ccc(N4CC5CC(C4)N5C4CCC4)cc3)nc2n1-c1ccc2c(n1)C(O)(CC)C1(CC1)C2 (single isomer, unassigned) [Compound 22a] |
| 0.1 to 1 µM | 0.1 to 1 µM | 0.1 to 1 µM | C=CCn1c(=O)c2cnc(Nc3ccc(N4CCN(C)CC4)c(C)c3)nc2n1-c1ccc2c(n1)[C@](C)(O)C1(CC2)CC1 (single isomer, unassigned) [Compound 23b] |

| IC50 [1] | IC50 [2] | IC50 [3] | SMILES |
| --- | --- | --- | --- |
| 5 to 10 µM | 5 to 10 µM | 2 to 5 µM | C=CCn1c(=O)c2cnc(Nc3ccc(N4C[C@@H](C)O[C@@H](C)C4)cc3)nc2n1-c1ccc2c(n1)[C@](O)(CC)C1(CC1)C2 (single isomer, unassigned) [Compound 31a] |
| 1 to 2 µM | 2 to 5 µM | 2 to 5 µM | C=CCn1c(=O)c2cnc(Nc3ccc(N4C[C@@H](C)O[C@@H](C)C4)cc3)nc2n1-c1ccc2c(n1)[C@@](O)(CC)C1(CC1)C2 (single isomer, unassigned) [Compound 31b] |
| 2 to 5 µM | – | 0.1 to 1 µM | C=CCn1c(=O)c2cnc(Nc3ccc(N4CC5CC(C4)N5C)cc3)nc2n1-c1ccc2c(n1)C(O)C1(CC2)CC1 (single isomer, unassigned) [Compound 34a] |
| 1 to 2 µM | 0.1 to 1 µM | 0.1 to 1 µM | C=CCn1c(=O)c2cnc(Nc3ccc(N4CC5CC(C4)N5C)cc3)nc2n1-c1ccc2c(n1)[C@H](O)C1(CC2)CC1 (single isomer, unassigned) [Compound 34b] |
| 0.1 to 1 µM | 0.1 to 1 µM | 0.1 to 1 µM | C=CCn1c(=O)c2cnc(Nc3ccc(N4CC5CC(C4)N5C(C)C)cc3)nc2n1-c1ccc2c(n1)[C@](C)(O)C1(CC2)CC1 (single isomer, unassigned) [Compound 35a] |
| 0.1 to 1 µM | 0.1 to 1 µM | 0.1 to 1 µM | C=CCn1c(=O)c2cnc(Nc3ccc(N4CC5CC(C4)N5C(C)C)cc3)nc2n1-c1ccc2c(n1)[C@@](C)(O)C1(CC2)CC1 (single isomer, unassigned) [Compound 35b] |
| 0.1 to 1 µM | 0.1 to 1 µM | 0.1 to 1 µM | C=CCn1c(=O)c2cnc(Nc3ccc(N4CC5CC(C4)N5C(C)C)cc3)nc2n1-c1ccc2c(n1)C(O)(CC)C1(CC2)CC1 (single isomer, unassigned) [Compound 36a] |
| 0.1 to 1 µM | 0.1 to 1 µM | 0.1 to 1 µM | C=CCn1c(=O)c2cnc(Nc3ccc(N4CC5CC(C4)N5C(C)C)cc3)nc2n1-c1ccc2c(n1)[C@](O)(CC)C1(CC2)CC1 (single isomer, unassigned) [Compound 36b] |
| 0.1 to 1 µM | 0.1 to 1 µM | 0.1 to 1 µM | C=CCn1c(=O)c2cnc(Nc3ccc(N4CC5CC(C4)N5C(C)C)cc3)nc2n1-c1ccc2c(n1)C(O)C1(CC2)CC1 (single isomer, unassigned) [Compound 39a] |
| 0.1 to 1 µM | 1 to 2 µM | 0.1 to 1 µM | C=CCn1c(=O)c2cnc(Nc3ccc(N4CCC(N(C)C)CC4)c(C)c3)nc2n1-c1ccc2c(n1)C(O)C1(CC2)CC1 (single isomer, unassigned) [Compound 41a] |
| 0.1 to 1 µM | 0.1 to 1 µM | 0.1 to 1 µM | C=CCn1c(=O)c2cnc(Nc3ccc(N4CCC(N(C)C)CC4)c(C)c3)nc2n1-c1ccc2c(n1)[C@](C)(O)C1(CC1)C2 (single isomer, unassigned) [Compound 42a] |
| 0.1 to 1 µM | 0.1 to 1 µM | 0.1 to 1 µM | C=CCn1c(=O)c2cnc(Nc3ccc(N4CCC(N(C)C)CC4)c(C)c3)nc2n1-c1ccc2c(n1)[C@@](C)(O)C1(CC1)C2 (single isomer, unassigned) [Compound 42b] |
| 0.1 to 1 µM | 0.1 to 1 µM | 0.1 to 1 µM | C=CCn1c(=O)c2cnc(Nc3ccc(N4CC5CN(C)CC5C4)cc3)nc2n1-c1ccc2c(n1)C(C)(O)C1(CC2)CC1 (single isomer, unassigned) [Compound 43a] |
| 0.1 to 1 µM | 0.1 to 1 µM | 0.1 to 1 µM | C=CCn1c(=O)c2cnc(Nc3ccc(N4C[C@H]5CN(C)C[C@H]5C4)cc3)nc2n1-c1ccc2c(n1)[C@@](C)(O)C1(CC2)CC1 (single isomer, unassigned) [Compound 43b] |
| – | 1 to 2 µM | 0.1 to 1 µM | C=CCn1c(=O)c2cnc(Nc3ccc(N4CCN(C)CC4)cc3)nc2n1-c1ccc2c(n1)N(CC)CC21CCC1 [Compound 16] |
| – | 0.1 to 1 µM | – | C=CCn1c(=O)c2cnc(Nc3ccc(N4CCC5(CCN(C)CC5)CC4)cc3)nc2n1-c1ccc2c(n1)[C@](C)(O)C1(CC2)CC1 [Compound 44b] |

| SMILES | IC50 [1] | IC50 [2] | IC50 [3] |
| --- | --- | --- | --- |
| C=CCn1c(=O)c2cnc(Nc3ccc(N4CCN(C)CC4)cc3)nc2n1-c1ccc2c(n1)C(O)(CC)C1(CC1)C2 (racemic) [Compound 18] | 2 to 5 µM | 2 to 5 µM | 0.1 to 1 µM |
| C=CCn1c(=O)c2cnc(Nc3ccc(N4CCOCC4)cc3)nc2n1-c1ccc2c(n1)C(O)(CC)C1(CC1)C2 (racemic) [Compound 24] | 1 to 2 µM | 1 to 2 µM | 1 to 2 µM |
| C=CCn1c(=O)c2cnc(Nc3ccc(N4CC5CCC(C4)N5C)cc3)nc2n1-c1ccc2c(n1)C(O)(CC)C1(CC1)C2 (racemic) [Compound 25] | 0.1 to 1 µM | 1 to 2 µM | 1 to 2 µM |
| C=CCn1c(=O)c2cnc(Nc3ccc(N4CCN(C)CC4)cc3)nc2n1-c1ccc2c(c1)C(O)(CC)C1(CC1)C2 (racemic) [Compound 29] | 0.1 to 1 µM | 2 to 5 µM | 1 to 2 µM |
| C=CCn1c(=O)c2cnc(Nc3ccc(N4CCN(C)CC4)cc3)nc2n1-c1ccc2c(n1)C(C)(O)C1(CC1)C2 (single isomer, unassigned) [Compound 3a] | 1 to 2 µM | 1 to 2 µM | 1 to 2 µM |
| C=CCn1c(=O)c2cnc(Nc3ccc(N4CC5CC(C4)N5CC)cc3)nc2n1-c1ccc2c(n1)[C@](C)(O)C1(CC2)CC1 [Compound 51b] | – | 0.1 to 1 µM | – |
